Measurements as given in ChEMBL document CHEMBL6134832, “Expanding the utilization of binding pockets proves to be effective for noncovalent small molecule inhibitors against SARS-CoV-2 Mpro” (Eur J Med Chem, 2025).
Active and inactive are the calls of the source. The rule behind the calls is not given here.

Legend:
Type in all cases: functional, organism-based
[1] = tested on: SARS-CoV-2; test: Antiviral activity against SARS-CoV-2 omicron BA.5 variant infected in K18-hACE2 transgenic mouse model assessed as reduction in viral RNA loads in lung at 30 mg/kg, po pretreated for 2 hrs followed by viral infection and measured on 2 dpi; conditions: Severe acute respiratory syndrome coronavirus 2, time 50.0 hrs
[2] = tested on: SARS-CoV-2; test: Antiviral activity against SARS-CoV-2 omicron BA.5 variant infected in po dosed K18-hACE2 transgenic mouse model assessed as reduction in viral RNA loads in lung pretreated for 2 hrs followed by viral infection and measured on 2 dpi; conditions: Severe acute respiratory syndrome coronavirus 2, time 50.0 hrs
[3] = tested on: SARS-CoV-2; test: Antiviral activity against SARS-CoV-2 omicron BA.5 variant infected in K18-hACE2 transgenic mouse model assessed as reduction in viral titers in lung at 30 mg/kg, po pretreated for 2 hrs followed by viral infection and measured on 2 dpi; conditions: Severe acute respiratory syndrome coronavirus 2, time 50.0 hrs
[4] = tested on: SARS-CoV-2; test: Antiviral activity against SARS-CoV-2 omicron BA.5 variant infected in K18-hACE2 transgenic mouse model assessed as septal thickening in lung at 40 mg/kg, po pretreated for 2 hrs followed by viral infection and measured on 2 dpi; conditions: Severe acute respiratory syndrome coronavirus 2, time 50.0 hrs
[5] = tested on: SARS-CoV-2; test: Antiviral activity against SARS-CoV-2 omicron BA.5 variant infected in K18-hACE2 transgenic mouse model assessed as inflammatory cell infiltration in lung at 40 mg/kg, po pretreated for 2 hrs followed by viral infection and measured on 2 dpi; conditions: Severe acute respiratory syndrome coronavirus 2, time 50.0 hrs
[6] = tested on: SARS-CoV-2; test: Antiviral activity against SARS-CoV-2 omicron BA.5 variant infected in K18-hACE2 transgenic mouse model assessed as reduction in viral RNA loads in lung at 80 mg/kg, po pretreated for 2 hrs followed by viral infection and measured on 2 dpi; conditions: Severe acute respiratory syndrome coronavirus 2, time 50.0 hrs
[7] = tested on: SARS-CoV-2; test: Antiviral activity against SARS-CoV-2 omicron BA.5 variant infected in K18-hACE2 transgenic mouse model assessed as reduction in disease severity at 20 mg/kg, po pretreated for 2 hrs followed by viral infection and measured on 2 dpi; conditions: Severe acute respiratory syndrome coronavirus 2, time 50.0 hrs
[8] = tested on: SARS-CoV-2; test: Antiviral activity against SARS-CoV-2 omicron BA.5 variant infected in K18-hACE2 transgenic mouse model assessed as reduction in viral titers in lung at 20 to 80 mg/kg, po pretreated for 2 hrs followed by viral infection and measured on 2 dpi; conditions: Severe acute respiratory syndrome coronavirus 2, dose 20-80 mg/kg, time 50.0 hrs
[9] = tested on: SARS-CoV-2; test: Antiviral activity against SARS-CoV-2 omicron BA.5 variant infected in K18-hACE2 transgenic mouse model assessed as inflammatory cell infiltration in lung at 40 to 80 mg/kg, po pretreated for 2 hrs followed by viral infection and measured on 2 dpi; conditions: Severe acute respiratory syndrome coronavirus 2, dose 40-80 mg/kg, time 50.0 hrs
[10] = tested on: SARS-CoV-2; test: Antiviral activity against SARS-CoV-2 omicron BA.5 variant infected in K18-hACE2 transgenic mouse model assessed as reduction in degree of damage at 20 mg/kg, po pretreated for 2 hrs followed by viral infection and measured on 2 dpi; conditions: Severe acute respiratory syndrome coronavirus 2, time 50.0 hrs
[11] = tested on: SARS-CoV-2; test: Antiviral activity against SARS-CoV-2 omicron BA.5 variant infected in K18-hACE2 transgenic mouse model assessed as septal thickening in lung at 40 to 80 mg/kg, po pretreated for 2 hrs followed by viral infection and measured on 2 dpi; conditions: Severe acute respiratory syndrome coronavirus 2, dose 40-80 mg/kg, time 50.0 hrs
[12] = tested on: SARS-CoV-2; test: Antiviral activity against SARS-CoV-2 omicron BA.5 variant infected in K18-hACE2 transgenic mouse model assessed as inflammatory cell infiltration in lung at 90 mg/kg, po pretreated for 2 hrs followed by viral infection and measured on 2 dpi; conditions: Severe acute respiratory syndrome coronavirus 2, time 50.0 hrs
[13] = tested on: SARS-CoV-2; test: Antiviral activity against SARS-CoV-2 omicron BA.5 variant infected in K18-hACE2 transgenic mouse model assessed as reduction in viral titers in lung at 15 to 90 mg/kg, po pretreated for 2 hrs followed by viral infection and measured on 2 dpi; conditions: Severe acute respiratory syndrome coronavirus 2, dose 15-90 mg/kg, time 50.0 hrs
[14] = tested on: SARS-CoV-2; test: Antiviral activity against SARS-CoV-2 omicron BA.5 variant infected in K18-hACE2 transgenic mouse model assessed as septal thickening in lung at 90 mg/kg, po pretreated for 2 hrs followed by viral infection and measured on 2 dpi; conditions: Severe acute respiratory syndrome coronavirus 2, time 50.0 hrs
[15] = tested on: SARS-CoV-2; test: Antiviral activity against SARS-CoV-2 omicron BA.5 variant infected in K18-hACE2 transgenic mouse model assessed as reduction in degree of damage at 15 to 30 mg/kg, po pretreated for 2 hrs followed by viral infection and measured on 2 dpi; conditions: Severe acute respiratory syndrome coronavirus 2, dose 15-30 mg/kg, time 50.0 hrs
[16] = tested on: SARS-CoV-2; test: Antiviral activity against SARS-CoV-2 omicron BA.5 variant infected in K18-hACE2 transgenic mouse model assessed as reduction in disease severity at 15 to 30 mg/kg, po pretreated for 2 hrs followed by viral infection and measured on 2 dpi; conditions: Severe acute respiratory syndrome coronavirus 2, dose 15-30 mg/kg, time 50.0 hrs

Q: `Cn1cnc(Cn2c(=O)[nH]/c(=N\c3cc4cn(C)nc4cc3Cl)n(Cc3cc(F)c(F)cc3F)c2=O)n1` was tested. Which Activity [1] did it give?
A: Active

Q: And the Activity [2]?
A: Dose-dependent-effect

Q: What about the Activity [3] of the same compound?
A: Active

Q: And the Activity [4]?
A: Active

Q: And the Activity [5]?
A: Mild_effect

Q: How did the Activity [2] turn out when `Cn1cc2cc(/N=c3\[nH]c(=O)n(-c4cccnc4)c(=O)n3Cc3cc(F)c(F)cc3F)c(Cl)cc2n1` was run?
A: Dose-dependent-effect

Q: And the Activity [6]?
A: Active

Q: What about the Activity [7] of the same compound?
A: Active

Q: And the Activity [8]?
A: Active

Q: What about the Activity [9] of the same compound?
A: Mild_effect

Q: And the Activity [10]?
A: Active

Q: What about the Activity [11] of the same compound?
A: Active

Q: For `Cc1ccc(C#N)cc1Cn1c(=O)n(-c2cncc(SC3CC3)c2)c(=O)[nH]/c1=N\c1cc2cn(C)nc2cc1Cl`, which Activity [12] is on record?
A: Mild_effect

Q: And the Activity [2]?
A: Dose-dependent-effect

Q: What about the Activity [13] of the same compound?
A: Active

Q: What about the Activity [14] of the same compound?
A: Active

Q: And the Activity [15]?
A: Active

Q: And the Activity [16]?
A: Active
